For 2 compounds, speed of sound results are on record in the NIST ThermoML archive (doi:10.1016/j.jct.2016.01.028).

Each structure is given as a SMILES string. Numbers after ± are expanded uncertainties.

The conditions of this data set: 102 kPa, Liquid, Frequency=5 MHz, Single path-length method.

Consider `CCCC(=O)[O-].C[NH2+]CCO` [N-methyl-2-hydroxyethylammonium butanoate], for which the speed of sound by setting is: (293.15 K) 1576.8 ± 2.6 m/s; (298.15 K) 1562.9 ± 2.6 m/s; (303.15 K) 1548 ± 2.6 m/s; (308.15 K) 1529.7 ± 2.6 m/s; (313.15 K) 1511.9 ± 2.6 m/s; (318.15 K) 1499.4 ± 2.6 m/s. Also, the speed of sound is 1481.3 ± 2.6 m/s (323.15 K); 1467.2 ± 2.6 m/s (328.15 K); 1451.2 ± 2.6 m/s (333.15 K); 1436.7 ± 2.6 m/s (338.15 K); 1419.4 ± 2.6 m/s (343.15 K).

For `CCCCC(=O)[O-].C[NH2+]CCO` [2-hydroxy-N-methylethanaminium pentanoate], the speed of sound (293.15 K) came out at 1537 ± 2.6 m/s; the speed of sound (298.15 K) is 1516.3 ± 2.6 m/s; the speed of sound (303.15 K) came out at 1503.7 ± 2.6 m/s; the speed of sound (308.15 K) was 1486.5 ± 2.6 m/s; the speed of sound (313.15 K) came out at 1471 ± 2.6 m/s; the speed of sound (318.15 K) amounted to 1457 ± 2.6 m/s. Further, the speed of sound runs as follows: (323.15 K) 1440 ± 2.6 m/s; (328.15 K) 1424.6 ± 2.6 m/s; (333.15 K) 1412.8 ± 2.6 m/s; (338.15 K) 1397.1 ± 2.6 m/s; (343.15 K) 1381.9 ± 2.6 m/s.

What is called speed of sound is the propagation velocity of pressure waves in the medium.
